According to patent publication US20090048247A1, “CONDENSED ISOXALINE DERIVATIVES AS INHIBITORS OF PHOSPHODIESTERASE TYPE - IV” (priority 2005, published 2009):

What was measured:
[1] = system: TNF-α release, human peripheral blood mononuclear cells; experiment: Cell Based Assay for TNF-α Release (LPS stimulation of Human PBMNC's); conditions: PBMC, LPS 1 μg/ml, TNF-α by ELISA, comparator, 4 repetitions
Protocol: Human whole blood was collected in vacutainer tubes containing heparin or EDTA as an anti coagulant. The blood was diluted (1:1) in sterile phosphate buffered saline and 10 ml. was carefully layered over 5 ml Ficoll Hypaque gradient (density 1.077 g/ml) in a 15 ml conical centrifuge tube. The sample was centrifuged at 3000 rpm for 25 minutes in a swing-out rotor at room temperature. After centrifugation, interface of cells were collected, diluted at least 1:5 with PBS and washed three times by centrifugation at 2500 rpm for 10 minutes at room temperature. The cells were resuspended in serum free RPMI 1640 medium at a concentration of 2 million cells/ml. Alternatively whole blood was used.
LPS stimulation of Human PBMNC's:
PBMN cells (0.1 ml; 2 million/ml) were co-incubated with 20 μl of compound (final DMSO concentration of 0.2%) for 10 min in a flat bottom 96 well microtiter plate. Compounds were dissolved in DMSO initially and diluted in medium for a final concentration of 0.2% DMSO. LPS (1 μg/ml, final concentration) was then added at a volume of 10 μl per well. After 30 min, 20 μl of fetal calf serum (final concentration of 10%) was added to each well. […] The level of TNFα in treated wells was compared with the vehicle treated controls and inhibitory potency of compound was expressed as IC50 values calculated by using Graph pad prism.

[2] = Solubility under the experimental conditions of the PDE-IV enzyme assay
Protocol: The PDE-4 enzyme source used was U937 cell cytosolic fraction prepared by sonication. The enzyme reaction was carried out, with the cytosolic fraction as the enzyme source, in the presence of cAMP (1 μM) at 30° C. in the presence or absence of NCE for 45-60 min. An aliquot of this reaction mixture was taken further for the ELISA assay to determine level of cAMP in the sample. The concentration of the cAMP in the sample directly correlates with the degree of PDE-4 enzyme inhibition.

COc1ccc(C2=NO[C@]3(CCOC3)C2)cc1OC1CCCC1 [Compound No. 124, (S)-3-[3-(cyclopentyloxy)-4-methoxyphenyl]-1,7-dioxa-2-azaspiro[4.4]non-2-ene]
melting point: 110.5 °C

COc1ccc(C2CNC(=O)C2)cc1OC1CCCC1 (stereo not drawn) [rolipram]
IC50 [1]: ~240 nM

c1cc(OC2CCCC2)c(OC2CCCCCC2)cc1C1=NOC2(CCOC2)C1 (stereo not drawn) [Compound No. 119, 3-[3-(Cycloheptyloxy)-4-(cyclopentyloxy)phenyl]-1,7-dioxa-2-azaspiro[4.4]non-2-ene]
solubility under the experimental conditions [2]: insoluble
